Tests used:
[1] = test system: catalepsy induced by the DA receptor antagonist haloperidol; conditions: cited from earlier work
Human M4 = molecular target: T1, Human M4 (Homo sapiens, UniProt P08173); assay: mAChR M4 cell-based functional assay (calcium flux, EC80 acetylcholine response); conditions: M4/Gqi5/CHO-K1 cells; for remaining activity at 30 µM: % ACh maximum at 30 μM, read-out: Human M4 Emin (% ACh maximum at 30 μM); for IC50: decrease of the response to an EC80 concentration of acetylcholine, read-out: Human M4 IC50
T1 construct: expressed in transfected cells; host or cells: CHO-K1 (Chinese hamster ovary, ATCC), stably expressing M4 and Gqi5
T1 sequence (P08173 1-479): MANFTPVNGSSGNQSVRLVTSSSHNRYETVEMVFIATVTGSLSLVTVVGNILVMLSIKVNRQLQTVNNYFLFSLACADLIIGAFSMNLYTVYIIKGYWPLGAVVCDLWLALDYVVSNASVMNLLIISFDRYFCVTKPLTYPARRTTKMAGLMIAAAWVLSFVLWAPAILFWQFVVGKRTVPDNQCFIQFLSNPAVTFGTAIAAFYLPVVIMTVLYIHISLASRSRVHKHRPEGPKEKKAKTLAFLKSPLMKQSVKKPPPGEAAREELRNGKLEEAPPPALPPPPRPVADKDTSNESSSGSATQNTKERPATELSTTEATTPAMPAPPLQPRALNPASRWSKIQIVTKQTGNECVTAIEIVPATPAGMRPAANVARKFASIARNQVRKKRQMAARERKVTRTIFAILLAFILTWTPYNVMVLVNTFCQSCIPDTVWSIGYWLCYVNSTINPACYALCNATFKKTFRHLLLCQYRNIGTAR
Experimental: Human or rat M4 cDNA, along with the chimeric G protein Gqi5, were transfected into Chinese hamster ovary (CHO-K1) cells purchased from the American Type Culture Collection using Lipofectamine2000. M4/Gqi5/CHO cells were grown in Ham's F-12 medium containing […] heat-inactivated fetal bovine serum (FBS), 20 mM HEPES, 500 μg/mL G418 sulfate, and 200 μg/mL Hygromycin B.
For high throughput measurement of agonist-evoked increases in intracellular calcium, CHO-K1 cells stably expressing muscarinic receptors were plated in growth medium lacking G418 and hygromycin at 15,000 cells/20 μL/well in Greiner 384-well black-walled, tissue culture (TC)-treated, clear-bottom plates (VWR). Cells were incubated overnight at 37° C. and 500 CO2. […] Compound master plates were formatted in a 10 point concentration-response curve (CRC) format (1:3 dilutions) in 100% DMSO with a starting concentration of 10 or 1 mM using a BRAVO liquid handler (Agilent). Test compound CRCs were then transferred to daughter plates (240 nL) using the Echo acoustic plate reformatter (Labcyte, Sunnyvale, CA) and then diluted into assay buffer (40 μL) to a 2× stock using a Thermo Fisher Combi (Thermo Fisher Scientific, Waltham, MA).
Calcium flux was measured using the Functional Drug Screening System (FDSS) 6000 or 7000 (Hamamatsu Corporation, Tokyo, Japan) as an increase in the fluorescent static ratio. Compounds were applied to cells (20 μL, 2×) using the automated system of the FDSS at 2 seconds into the protocol and the data were collected at 1 Hz. […] Agonist activity was analyzed as a concentration-dependent increase in calcium mobilization upon compound addition. Positive allosteric modulator activity was analyzed as a concentration-dependent increase in the EC20 acetylcholine response. Antagonist activity was analyzed as a concentration-dependent decrease in the EC80 acetylcholine response; for the purposes of the tables herein, an IC50 (inhibitory concentration 50) was calculated as a concentration-dependent decrease of the response elicited by an EC80 concentration of acetylcholine. Concentration-response curves were generated using a four-parameter logistical equation in XLFit curve fitting software (IDBS, Bridgewater, NJ) for Excel (Microsoft, Redmond, WA) or Prism (GraphPad Software, Inc., San Diego, CA) or the Dotmatics software platform (Dotmatics, Bishop's Stortford, UK).
Compounds were synthesized as described above.

| Compound | reduction of haloperidol-induced catalepsy ([1]; M4 KO mice) | reversal of haloperidol-induced catalepsy ([1]; WT mice) | remaining activity at 30 µM (Human M4) [%] | IC50 (Human M4) [pM] |
| --- | --- | --- | --- | --- |
| CN1[C@@H]2C[C@@H](OC(=O)[C@H](CO)c3ccccc3)C[C@H]1[C@@H]1O[C@@H]12 [scopolamine] | ineffective | completely reversed | – | – |
| [2H]C([2H])([C@H]1CCCOC1)N1C[C@H]2C[C@H](Nc3ccc(-c4ccc5nn(C)cc5c4C)nn3)C[C@H]2C1 [compound 14, (3aR,5s,6aS)-N-(6-(2,4-dimethyl-2H-indazol-5-yl)pyridazin-3-yl)-2-(((R)-tetrahydro-2H-pyran-3-yl)methyl-d2)octahydrocyclopenta-[c]pyrrol-5-amine] | – | – | 3 | 790 |
| [2H]C([2H])(C1CC(C)(C)OC(C)(C)C1)N1C[C@H]2C[C@H](Nc3ccc(-c4ccc5nn(C)cc5c4C)nn3)C[C@H]2C1 [compound 19, (3aR,5s,6aS)-N-(6-(2,4-dimethyl-2H-indazol-5-yl)pyridazin-3-yl)-2-((2,2,6,6-tetramethyltetrahydro-2H-pyran-4-yl)methyl-d2)octahydrocyclopenta[c]pyrrol-5-amine] | – | – | 5 | 5000 |
| [2H]C([2H])(C1CCOCC1(C)C)N1C[C@H]2C[C@H](Nc3ccc(-c4ccc5nn(C)cc5c4C)nn3)C[C@H]2C1 (stereo partly drawn) [compound 17, (3aR,5s,6aS)-N-(6-(2,4-dimethyl-2H-indazol-5-yl)pyridazin-3-yl)-2-((3,3-dimethyltetrahydro-2H-pyran-4-yl)methyl-d2)octahydrocyclopenta[c]pyrrol-5-amine] | – | – | 3 | 900 |
| [2H]C([2H])([C@H]1COCCO1)N1C[C@H]2C[C@H](Nc3ccc(-c4ccc5nn(C)cc5c4C)nn3)C[C@H]2C1 [compound 15, (3aR,5s,6aS)-2-(((S)-1,4-dioxan-2-yl)-methyl-d2)-N-(6-(2,4-dimethyl-2H-indazol-5-yl)-pyridazin-3-yl)octahydrocyclopenta[c]pyrrol-5-amine] | – | – | 3 | 420 |
| [2H]C([2H])([2H])N(c1cc(C(F)(F)F)c(-c2ccc3nn(C)cc3c2C)nn1)[C@H]1C[C@@H]2CN(CC3CCOCC3)C[C@@H]2C1 [compound 5, (3aR,5s,6aS)-N-(6-(2,4-dimethyl-2H-indazol-5-yl)-5-(trifluoromethyl)pyridazin-3-yl)-N-(methyl-d3)-2-((tetrahydro-2H-pyran-4-yl)methyl)octahydrocyclopenta[c]pyrrol-5-amine] | – | – | 3 | 130000 |
| [2H]C1([2H])CC(C([2H])([2H])N2C[C@H]3C[C@H](Nc4ccc(-c5ccc6nn(C)cc6c5C)nn4)C[C@H]3C2)CC([2H])([2H])O1 [compound 21, (3aR,5s,6aS)-N-(6-(2,4-dimethyl-2H-indazol-5-yl)pyridazin-3-yl)-2-((tetrahydro-2H-pyran-4-yl-2,2,6,6-d4)methyl-d2)octahydrocyclopenta[c]pyrrol-5-amine] | – | – | 3 | 400 |
| Cc1cc2nn(C)cc2cc1-c1ccc(N[C@H]2C[C@@H]3CN(CC4CCOCC4)C[C@@H]3C2)nn1 [compound 1, (3aR,5s,6aS)-N-(6-(2,6-dimethyl-2H-indazol-5-yl)pyridazin-3-yl)-2-((tetrahydro-2H-pyran-4-yl)methyl)octahydrocyclopenta[c]pyrrol-5-amine] | – | – | 3 | 2700 |
| [2H]C([2H])(C1CCOCC1)N1C[C@H]2C[C@H](Nc3ccc(-c4ccc5nn(C([2H])([2H])[2H])cc5c4C)nn3)C[C@H]2C1 [compound 9, (3aR,5s,6aS)-N-(6-(4-methyl-2-(methyl-d3)-2H-indazol-5-yl)pyridazin-3-yl)-2-((tetrahydro-2H-pyran-4-yl)methyl-d2)octahydrocyclopenta[c]pyrrol-5-amine] | – | – | 3 | 370 |
| [2H]C([2H])([C@@H]1COCCO1)N1C[C@H]2C[C@H](Nc3ccc(-c4ccc5nn(C)cc5c4C)nn3)C[C@H]2C1 [compound 16, (3aR,5s,6aS)-2-(((R)-1,4-dioxan-2-yl)-methyl-d2)-N-(6-(2,4-dimethyl-2H-indazol-5-yl)pyridazin-3-yl)octahydrocyclopenta[c]pyrrol-5-amine] | – | – | 3 | 8900 |
| COc1cc(-c2ccc3nn(C)cc3c2C)nnc1N[C@H]1C[C@@H]2CN(CC3CCOCC3)C[C@@H]2C1 [compound 26, (3aR,5s,6aS)-N-(6-(2,4-dimethyl-2H-indazol-5-yl)-4-methoxypyridazin-3-yl)-2-((tetrahydro-2H-pyran-4-yl)-methyl)octahydrocyclopenta[c]pyrrol-5-amine] | – | – | 4 | 790 |
| Cc1c(-c2cc(C(F)(F)F)c(N[C@H]3C[C@@H]4CN(CC5CCOCC5)C[C@@H]4C3)nn2)ccc2nn(C)cc12 [compound 30, (3aR,5s,6aS)-N-(6-(2,4-dimethyl-2H-indazol-5-yl)-4-(trifluoromethyl)-pyridazin-3-yl)-2-((tetrahydro-2H-pyran-4-yl)methyl)-octahydrocyclopenta[c]pyrrol-5-amine] | – | – | 2 | – |
| Cc1cc(N[C@H]2C[C@@H]3CN(CC4CCOCC4)C[C@@H]3C2)nnc1-c1ccc2nn(C)cc2c1C [compound 27, (3aR,5s,6aS)-N-(6-(2,4-dimethyl-2H-indazol-5-yl)-5-methylpyridazin-3-yl)-2-((tetrahydro-2H-pyran-4-yl)methyl)octahydrocyclopenta[c]pyrrol-5-amine] | – | – | 3 | 760 |
| [2H]C([2H])([C@H]1CCCCO1)N1C[C@H]2C[C@H](Nc3ccc(-c4ccc5nn(C)cc5c4C)nn3)C[C@H]2C1 [compound 11, (3aR,5s,6aS)-N-(6-(2,4-dimethyl-2H-indazol-5-yl)pyridazin-3-yl)-2-(((R)-tetrahydro-2H-pyran-2-yl)-methyl-d2)octahydrocyclopenta[c]pyrrol-5-amine] | – | – | 2 | 410 |

Source: patent publication US20240174655A1, “INDAZOLE DERIVATIVES AS ANTAGONISTS OF THE MUSCARINIC ACETYLCHOLINE RECEPTOR M4” (Vanderbilt University, priority 2021, published 2024)
